{"source": "patent US20240335503A1", "about": "“ROMIDEPSIN AS A THERAPEUTIC AGENT FOR NERVE-INJURY INDUCED NEUROPATHIC PAIN AND SPASTICITY” (The United States Government as represented by the …, priority 2021, published 2024)", "key": {"[1]": {"test_system": "primary cultured spinal cord dorsal horn neurons", "test": "Dendritic spine density in primary cultured neurons with PAK1 inhibitor", "assay_type": "cell-based", "details": "PAK1 inhibitor treatment; FIG. 11", "procedure": "To assess whether PAK1 inhibition would disrupt dendritic spines, a morphological correlate of spasticity, the effect of a non-pharmaceutical grade PAK1 inhibitor, IPA3, on primary cultured spinal cord dorsal horn neurons was measured using previous methods (Tan et al., 2011)."}, "[2]": {"test_system": "nerve injury-induced chronic pain", "test": "Spared nerve injury (SNI) pain model, mechanical-evoked pain", "assay_type": "in vivo", "details": "mouse SNI, IP once/day for 5 days at 0.25 mg/kg, FIG. 27", "description": "An SNI is a transection-type peripheral nerve injury model, whereby a portion of the sciatic nerve innervating the hindlimb is ligated and cut. In this nerve injury model, the common peroneal and tibial nerves are injured, producing consistent and reproducible pain hypersensitivity in the cutaneous territory of the spared sural nerve. Additionally, the SNI leads to prolonged mechanical and thermal hyperresponsiveness in behavioral studies, which closely mimic clinically-described neuropathic pain conditions (Cichon et al., 2018). With an SNI, adult mice rapidly develop maximal neuropathic pain sensitivity within 3 days post-SNI (Benson et al., 2020; Cichon et al., 2018).\nTo evaluate the efficacy of romidepsin in treating nerve-induced chronic pain, the following comparator groups were prepared (weight-matched, adult male/female equally mixed C57BL/6 mice): Sham (n=5), SNI+Vehicle (n=5), and SNI+romidepsin (n=5). Romidepsin was administered as an intraperitoneal (IP) injection for five consecutive days after SNI (once/day for 5 days: 5 μl per injection at 0.25 mg/kg). Vehicle administration route was the same as romidepsin (1% diluted in DMSO; IP route), and sham animals underwent all procedures except for nerve injury."}, "[3]": {"details": "cited from earlier work"}, "humans": {"test_system": "humans", "details": "human, in vivo; cited from earlier work"}, "adult mice": {"test_system": "adult mice", "details": "mouse, in vivo", "protocol": "Rationale for Dosing: These initial romidepsin dosages were determined on two interrelated rationales. […] 2) Because it is expected that the utility of romidepsin for pain mitigation would likely require longer-term use than for the oncology indication, a pilot study in mice was performed with a lower dose of romidepsin for a prolonged period of time (once daily injections up to 14 days)."}, "PAK1": {"molecular_target": "PAK1 (Homo sapiens, UniProt Q13153)", "sequence (Q13153 whole entry)": "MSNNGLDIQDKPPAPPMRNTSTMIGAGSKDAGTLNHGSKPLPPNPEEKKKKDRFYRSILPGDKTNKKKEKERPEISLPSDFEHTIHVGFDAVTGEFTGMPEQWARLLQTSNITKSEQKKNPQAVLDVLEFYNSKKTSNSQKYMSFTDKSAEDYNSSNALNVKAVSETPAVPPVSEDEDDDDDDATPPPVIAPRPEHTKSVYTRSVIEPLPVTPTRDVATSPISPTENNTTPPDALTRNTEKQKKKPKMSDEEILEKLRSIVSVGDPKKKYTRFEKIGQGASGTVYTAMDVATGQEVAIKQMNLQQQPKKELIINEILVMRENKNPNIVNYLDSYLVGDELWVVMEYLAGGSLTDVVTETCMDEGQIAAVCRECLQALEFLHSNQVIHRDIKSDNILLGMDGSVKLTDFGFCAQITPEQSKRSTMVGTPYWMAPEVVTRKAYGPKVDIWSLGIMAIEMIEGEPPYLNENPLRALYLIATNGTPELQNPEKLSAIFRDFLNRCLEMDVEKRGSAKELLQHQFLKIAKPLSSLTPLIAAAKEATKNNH", "details": "cited from earlier work"}, "SCI-induced spasticity": {"test_system": "SCI-induced spasticity", "test": "Evoked H-reflex EMG recordings (rate-dependent depression) in SCI spasticity model", "assay_type": "in vivo, mouse", "procedure": "(§1) As detailed elsewhere herein, the feasibility of “repurposing” a clinically approved drug to address spasticity in SCI will be evaluated. Here, testing the efficacy of romidepsin, an FDA-approved drug, to reduce PAK1 activity in the spinal cord and SCI-induced spasticity has begun. […] Initial test dosages were calculated from human trial data using FDA guidelines for converting drug dosage from human to animal.\nStudy Design: Four animal groups were prepared (adult m/f mix; 6-8 weeks old; n=60/group); 1) Sham+DMSO/vehicle, 2) Sham+Romidepsin, 3) SCI+DMSO/vehicle, and 4) SCI+Romidepsin. […]\nH-reflex electrophysiology-EMG recordings of evoked H-reflex will be performed in the plantar muscle group (Bandaru et al., 2015; Benson et al., 2017; Boulenguez et al., 2010; Nielsen et al., 2007). […] Three trials (10 sweeps/trial) will be recorded for each paired-pulse. Rectified traces will be analyzed. […] The H/M ratio will be calculated using the peak amplitude of M-wave and H-reflex following the test pulse. H-reflex EMG studies provide specific readout only of the monosynaptic circuit, and is therefore an accurate measure of the spinal stretch reflex response without the confounds of supraspinal, interneuronal, or other motor neuron sub-type input (Nielsen et al., 2007)."}, "SCI mouse model": {"test_system": "SCI mouse model", "test": "Maximum tolerated dose in SCI mouse model (weight loss, paw grip-strength, mobility)", "assay_type": "in vivo", "procedure": "as §1\n(§2) Vehicle (1% DMSO) was used as a control treatment."}, "[4]": {"test": "Maximum tolerated dose in SCI mouse model (weight loss, paw grip-strength, mobility)", "assay_type": "in vivo", "details": "mouse, in vivo; once/day for 3 days; 10 μl per IP injection; diluted in 1% DMSO", "procedure": "as §1, §2"}, "acetyl histone-H3 [5]": {"test_system": "acetyl histone-H3", "details": "injected intraperitoneally; within 24-hours post-administration; dorsal horn L4 (Guo et al., 2018); FIG. 25; cited from earlier work"}, "acetyl histone-H3 [6]": {"test_system": "acetyl histone-H3", "assay_type": "in vivo, mouse", "details": "vs control treated animal tissues; FIG. 17", "procedure": "as §1\nTo monitor in vivo drug-response using established clinical biomarkers from all animals before and after treatment with romidepsin, histone acetylation was assessed in spinal cord tissue, peripheral blood mononuclear cells (PBMCs), and monocytes from CSF (i.e., ELISA pharmacodynamics assessment) (Cotto et al., 2010); VanderMolen et al., 2011). Liquid samples were collected using routine blood or spinal CSF draws.\n(§3) To monitor in vivo drug-response using established clinical biomarkers from all animals before and after intrathecal treatment with romidepsin at MTD, histone acetylation in peripheral blood mononuclear cells (PBMCs) or lymphocytes/monocytes in CSF (i.e., ELISA pharmacodynamics assessment) will be assessed (Cotto et al., 2010; VanderMolen et al., 2011). […]"}, "p-Raf": {"test_system": "p-Raf", "test": "p-Raf expression in spinal cord neurons (histological analysis)", "assay_type": "in vivo, mouse", "details": "spinal cord after SCI; FIG. 16", "description": "Outcome Measures: On days 14, 28, and 35 post-SCI, spinal cord and brain tissue were collected for histological analyses. Tissue was processed using SWITCH clearing and immunohistochemistry performed to analyze protein expression levels of inflammatory markers, i.e., GFAP/OX42 for astro/microgliosis, cfos, p38, p-Raf, or PAK1 activity (Stamboulian et al., 2010); Tan et al., 2011; Tan et al., 2008). Because mice are Thy1-GFP transgenic animals, α-motor neurons were identified using established morphological criteria, including soma size and topographical location (Bandaru et al., 2015; Tan et al., 2012a). GFP-expressing dendritic spines were visualized, and their morphology profiled in association with spasticity. All data was statistically compared across groups (Bandaru et al., 2015; Zhao et al., 2016). To determine the efficacy of romidepsin treatments on SCI-induced spasticity, anatomical and biochemical data were correlated with spasticity outcomes. […]\nas §3"}}, "note": "“Also recorded” adds a separate entry of the source. Where two headings read alike, the source gives them in different places.", "data": [{"smiles": "Oc1ccc2ccccc2c1SSc1c(O)ccc2ccccc12", "note": "[IPA3]", "values": [{"measurement": "dendritic spine density", "setting": "[1]", "result": "decreases"}]}, {"smiles": "C/C=C1\\NC(=O)[C@H]2CSSCC/C=C/[C@H](CC(=O)N[C@H](C(C)C)C(=O)N2)OC(=O)[C@H](C(C)C)NC1=O", "note": "[romidepsin]", "values": [{"measurement": "mechanical-evoked pain", "setting": "[2]", "result": "significant decrease in mechanical-evoked pain; also recorded: significantly decreases mechanical-evoked pain"}, {"measurement": "blood brain barrier (BBB) penetration", "setting": "[3]; administered systemically in non-human primates or rodents/rats, drug and active metabolites", "result": "can passively penetrate through the blood brain barrier (BBB) in relatively low concentrations"}, {"measurement": "half-life", "setting": "[3]; depending on the organism (Berg et al., 2004)", "result": "< 10", "unit": "h"}, {"measurement": "half-life", "setting": "[3]; published PK/PD studies (Berg et al., 2004)", "result": "< 10", "unit": "h"}, {"measurement": "half-life", "setting": "[3]; published human PK/PD studies (Berg et al., 2004)", "result": "< 10", "unit": "h"}, {"measurement": "occurrence of adverse reactions (grade 3 or 4) related to weight loss and fatigue", "setting": "humans", "result": "2-8%"}, {"measurement": "adverse effects (ambulation, body mass loss, outward signs of toxicity)", "setting": "adult mice", "result": "no observable adverse effects"}, {"measurement": "food intake", "setting": "adult mice", "result": "appeared the same"}, {"measurement": "concentrations that significantly reduce PAK1 kinase activity", "setting": "PAK1; Hirokawa et al., 2005, Maruta, 2011", "result": "0.1 to 1", "unit": "nM"}, {"measurement": "PAK1 protein level", "setting": "PAK1; at 0.1-1 nM", "result": "without changing"}, {"measurement": "RDD of H-reflex (spasticity)", "setting": "SCI-induced spasticity; SCI animals vs vehicle control, preliminary EMG studies, FIG. 13", "result": "partially restored RDD; also recorded: partial reduction in spasticity"}, {"measurement": "RDD of H-reflex (H/M ratio)", "setting": "SCI-induced spasticity; SCI mice, IP injection at 0.25 mg/kg vs control vehicle, FIG. 15, 0.25 mg/kg", "result": "significant restoration of rate-dependent depression (RDD)"}, {"measurement": "maximum tolerated dose (MTD)", "setting": "SCI mouse model; SCI mouse model, once/day IP injection over 3 days, 0.1 ml", "result": 1.25, "unit": "mg/kg/injection"}, {"measurement": "body weight", "setting": "SCI mouse model; mouse, in vivo", "result": "does not affect"}, {"measurement": "paw-grip strength", "setting": "SCI mouse model; mouse, in vivo", "result": "does not affect"}, {"measurement": "MTD at 3 days", "setting": "[4]", "result": 1.25, "unit": "mg/kg"}, {"measurement": "histone acetylation in neurons", "setting": "acetyl histone-H3 [5]", "result": "upregulation of histone acetylation in neurons; also recorded: upregulation in acetyl histone-H3 in neurons"}, {"measurement": "H3 density in spinal cord tissues", "setting": "acetyl histone-H3 [6]", "result": "significant increase in H3 density"}, {"measurement": "expression of p-Raf on Thy-YFP expressing cells (neurons)", "setting": "p-Raf", "result": "significantly decreases"}]}]}
